Experimental data as given in article PMC6836411, “Identification and characterization of the Cucurbitacins, a novel class of small-molecule inhibitors of Tropomyosin receptor kinase a” (BMC Complementary and Alternative Medicine, 2019).

Key:
Type in all cases: biochemical
CAMK1 = CAMK1 (Homo sapiens, UniProt Q14012); assay: radiometric kinase panel, single dose […], duplicate; settings: read-out: % remaining activity at 500 nM
Aurora B = biological target: T1, Aurora B (Homo sapiens, UniProt Q96GD4); assay: as above; settings: read-out: % remaining activity at 500 nM
T1 construct: gene AURKB

[1] = biological target: T2, Tropomyosin receptor kinase A (TrkA) (Homo sapiens, UniProt P04629); assay: radiometric [γ-33P]ATP kinase assay, poly(Glu,Tyr) substrate, dose-response
T2 construct: gene NTRK1
T2 sequence (P04629 441-796 limits assumed): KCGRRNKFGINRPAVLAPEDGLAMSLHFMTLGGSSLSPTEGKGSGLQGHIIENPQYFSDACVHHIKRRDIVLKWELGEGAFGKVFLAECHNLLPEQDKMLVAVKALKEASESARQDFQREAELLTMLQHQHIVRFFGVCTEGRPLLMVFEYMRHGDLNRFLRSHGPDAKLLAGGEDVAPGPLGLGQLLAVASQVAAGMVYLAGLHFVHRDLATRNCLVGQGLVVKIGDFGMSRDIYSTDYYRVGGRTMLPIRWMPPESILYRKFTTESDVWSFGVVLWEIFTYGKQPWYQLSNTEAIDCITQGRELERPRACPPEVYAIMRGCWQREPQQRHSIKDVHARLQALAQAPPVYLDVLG

CAMK1, sequence (Q14012 whole entry): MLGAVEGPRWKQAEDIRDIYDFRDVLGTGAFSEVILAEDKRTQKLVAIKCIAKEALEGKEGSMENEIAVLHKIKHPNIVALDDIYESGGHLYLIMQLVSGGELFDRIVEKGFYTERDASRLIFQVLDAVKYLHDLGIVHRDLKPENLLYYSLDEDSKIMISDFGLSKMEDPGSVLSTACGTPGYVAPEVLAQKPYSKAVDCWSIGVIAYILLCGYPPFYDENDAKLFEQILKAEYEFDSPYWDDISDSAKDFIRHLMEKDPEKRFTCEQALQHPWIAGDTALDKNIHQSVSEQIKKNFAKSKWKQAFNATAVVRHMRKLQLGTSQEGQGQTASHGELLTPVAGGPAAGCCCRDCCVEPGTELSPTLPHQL
T1 sequence (Q96GD4 whole entry): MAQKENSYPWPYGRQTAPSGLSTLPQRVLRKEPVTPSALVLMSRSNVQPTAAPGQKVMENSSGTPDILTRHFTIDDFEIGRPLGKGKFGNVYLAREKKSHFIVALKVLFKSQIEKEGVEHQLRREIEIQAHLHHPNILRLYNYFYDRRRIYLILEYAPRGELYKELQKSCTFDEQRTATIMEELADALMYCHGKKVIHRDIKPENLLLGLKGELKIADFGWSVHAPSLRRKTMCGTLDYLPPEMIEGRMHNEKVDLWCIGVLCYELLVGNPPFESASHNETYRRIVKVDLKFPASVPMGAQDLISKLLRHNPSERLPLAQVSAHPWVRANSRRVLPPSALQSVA

Row | Compound | remaining activity at 0.5 µM (CAMK1) [%] | remaining activity at 0.5 µM (Aurora B) [%] | IC50 [1] [nM]
1 | CC(=O)OC(C)(C)/C=C/C(=O)[C@](C)(O)[C@H]1[C@H](O)C[C@@]2(C)[C@@H]3CC=C4[C@@H](C[C@H](O)C(=O)C4(C)C)[C@]3(C)C(=O)C[C@]12C [CuB, Cucurbitacin B] | 12.9 ± 3.7 | 23.2 ± 2.8 | 178
2 | CC(=O)OC(C)(C)/C=C/C(=O)[C@](C)(O)[C@H]1[C@H](O)C[C@@]2(C)[C@@H]3CC=C4[C@@H](C=C(O)C(=O)C4(C)C)[C@]3(C)C(=O)C[C@]12C [CuE, Cucurbitacin E] |  |  | 549
3 | CC(C)(O)/C=C/C(=O)[C@](C)(O)[C@H]1[C@H](O)C[C@@]2(C)[C@@H]3CC=C4[C@@H](C=C(O)C(=O)C4(C)C)[C@]3(C)C(=O)C[C@]12C [CuI, Cucurbitacin I] |  |  | 959
